Key:
[1] = molecular target: T1, ATP-dependent translocase ABCB1 (Homo sapiens, UniProt P08183); test: Inhibition of human MDR1 transfected in mouse NIH/3T3 MDR1-G185 cells assessed as daunomycin accumulation at 10 uM after 30 mins by flow cytometry (reference value: 13.2 +/- 1.1%); assay type: cell-based; set-up: scale not given: the % may be the effect or the level left; settings: nih/3t3 mdr1-g185, 0.5 h
[2] = Cytotoxicity against mouse NIH/3T3 cells assessed as cell growth at 10 uM after 24 hrs by MTT assay; assay type: cell-based, NIH3T3; settings: read-out: Activity
[3] = Cytotoxicity against human MDR1 transfected mouse NIH/3T3 MDR1-G185 cells assessed as cell growth at 10 uM after 24 hrs by MTT assay; assay type: ADME, cell-based, NIH3T3; settings: mouse NIH/3T3 MDR1-G185 cells transfected with human MDR1, read-out: Activity
[4] = molecular target: T1, ATP-dependent translocase ABCB1; test: Inhibition of human MDR1 transfected in mouse NIH/3T3 MDR1-G185 cells assessed as […] daunomycin accumulation after 30 mins by flow cytometry; assay type: cell-based

T1 sequence (P08183 whole entry): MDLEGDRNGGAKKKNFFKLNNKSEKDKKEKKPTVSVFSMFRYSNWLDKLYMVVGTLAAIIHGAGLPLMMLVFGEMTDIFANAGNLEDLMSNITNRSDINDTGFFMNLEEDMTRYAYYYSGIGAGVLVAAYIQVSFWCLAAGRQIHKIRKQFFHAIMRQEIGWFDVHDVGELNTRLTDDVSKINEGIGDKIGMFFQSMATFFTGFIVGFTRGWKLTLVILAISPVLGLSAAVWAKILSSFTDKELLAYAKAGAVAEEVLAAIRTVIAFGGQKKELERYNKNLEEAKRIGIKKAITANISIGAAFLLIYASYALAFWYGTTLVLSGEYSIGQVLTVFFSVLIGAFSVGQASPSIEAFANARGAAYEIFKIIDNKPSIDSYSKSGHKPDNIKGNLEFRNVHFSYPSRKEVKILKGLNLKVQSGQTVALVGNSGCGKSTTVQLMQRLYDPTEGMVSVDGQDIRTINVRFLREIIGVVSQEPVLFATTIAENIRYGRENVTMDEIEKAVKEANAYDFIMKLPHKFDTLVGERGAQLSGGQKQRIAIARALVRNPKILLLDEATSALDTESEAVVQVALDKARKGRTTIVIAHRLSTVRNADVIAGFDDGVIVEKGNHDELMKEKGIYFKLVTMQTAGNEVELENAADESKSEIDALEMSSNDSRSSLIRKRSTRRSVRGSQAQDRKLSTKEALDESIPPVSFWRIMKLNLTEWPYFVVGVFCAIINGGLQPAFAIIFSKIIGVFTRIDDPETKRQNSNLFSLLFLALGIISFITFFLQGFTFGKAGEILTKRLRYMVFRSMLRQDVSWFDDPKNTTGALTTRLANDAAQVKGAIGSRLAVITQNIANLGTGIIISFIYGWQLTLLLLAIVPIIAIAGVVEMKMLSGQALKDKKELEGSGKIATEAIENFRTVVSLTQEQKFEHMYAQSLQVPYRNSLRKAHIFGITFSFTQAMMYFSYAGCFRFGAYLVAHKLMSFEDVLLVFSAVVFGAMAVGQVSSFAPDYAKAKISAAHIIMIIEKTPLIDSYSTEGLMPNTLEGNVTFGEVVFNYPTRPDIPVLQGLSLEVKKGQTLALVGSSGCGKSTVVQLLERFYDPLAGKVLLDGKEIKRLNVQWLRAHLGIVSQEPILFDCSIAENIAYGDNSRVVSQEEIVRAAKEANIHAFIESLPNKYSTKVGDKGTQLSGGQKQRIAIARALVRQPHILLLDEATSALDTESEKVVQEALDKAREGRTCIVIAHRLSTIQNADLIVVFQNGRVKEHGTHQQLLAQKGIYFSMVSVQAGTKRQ

| Activity [1] | Ki [4] | Compound | viability at 24 h, 10 µM [2] | viability at 24 h, 10 µM [3] |
| --- | --- | --- | --- | --- |
| 73.2% | – | CC(=O)OC[C@]12[C@@H](OC(=O)c3ccccc3)[C@@H](O)[C@@H]3[C@@H](OC(C)=O)[C@]1(OC3(C)C)[C@@](C)(O)C[C@H](OC(=O)c1ccccc1)[C@@H]2OC(C)=O | – | – |
| 73.8% | – | CC(=O)OC[C@]12[C@@H](OC(=O)c3ccccc3)[C@@H](OC(C)=O)[C@@H]3[C@@H](OC(C)=O)[C@]1(OC3(C)C)[C@@](C)(O)C[C@H](OC(=O)c1ccccc1)[C@@H]2OC(C)=O | – | – |
| 79.7% | 0.78 µM | CC(=O)OC[C@]12[C@@H](OC(=O)c3ccccc3)[C@@H](OC(C)=O)[C@@H]3[C@@H](OC(=O)c4ccccc4)[C@]1(OC3(C)C)[C@@](C)(O)C[C@H](OC(C)=O)[C@@H]2OC(C)=O | 64.4% | 71.4% |
| 85.1% | 0.42 µM | CC(=O)O[C@H]1C[C@](C)(O)[C@]23OC(C)(C)[C@H]([C@H](OC(=O)/C=C/c4ccccc4)[C@H](OC(=O)c4ccccc4)[C@]2(C)[C@H]1OC(C)=O)[C@H]3O | 69% | 78.4% |
| 73.1% | – | CC(=O)O[C@H]1[C@@H]2[C@@H](OC(=O)c3ccccc3)[C@@]3(OC2(C)C)[C@@](C)([C@@H](O)[C@@H](OC(C)=O)C[C@]3(C)O)[C@H]1OC(=O)c1ccccc1 | – | – |
| 82.2% | 0.61 µM | CC(=O)O[C@H]1CC[C@](C)(O)[C@]23OC(C)(C)[C@H]([C@H](OC(=O)/C=C\c4ccccc4)[C@H](OC(=O)c4ccccc4)[C@]12C)[C@H]3OC(C)=O | 51.4% | 64.3% |
| 80.1% | 0.29 µM | CC(=O)O[C@H]1[C@@H](OC(=O)c2ccccc2)C[C@@H](C)[C@]23OC(C)(C)[C@H](C[C@H](OC(=O)c4ccccc4)[C@]12C)[C@H]3OC(=O)c1cccnc1 | 75.4% | 70.2% |
| 73.2% | – | CC(=O)O[C@@H]1[C@@H]2[C@@H](OC(=O)c3ccccc3)[C@@]3(OC2(C)C)[C@](C)([C@@H]1OC(=O)c1ccccc1)[C@@H](OC(C)=O)[C@@H](O)C[C@]3(C)O | – | – |
| 37% | – | CC(=O)O[C@H]1[C@@H](OC(=O)c2ccccc2)[C@]2(C)[C@@H](O)[C@@H](OC(C)=O)C[C@](C)(O)[C@@]23C[C@@H]1C(C)(C)O3 | – | – |
| 69.9% | – | CC(=O)OC[C@]12[C@@H](OC(=O)c3ccccc3)[C@@H](OC(C)=O)[C@@H]3[C@@H](OC(C)=O)[C@]1(OC3(C)C)[C@@](C)(O)C[C@H](OC(C)=O)[C@@H]2OC(C)=O | – | – |
| 73.6% | – | CC(=O)OC[C@]12[C@@H](OC(=O)c3ccccc3)C[C@@H]3[C@@H](OC(C)=O)[C@]1(OC3(C)C)[C@@](C)(O)C[C@H](OC(=O)c1ccccc1)[C@@H]2OC(C)=O | – | – |
| 72.4% | – | CC(=O)OC[C@@]12[C@@H](OC(C)=O)CC[C@](C)(O)[C@]13OC(C)(C)[C@H](C[C@@H]2OC(=O)c1ccccc1)[C@H]3OC(C)=O | – | – |
| 68.2% | – | CC(=O)OC[C@]12[C@@H](OC(=O)c3ccccc3)[C@@H](OC(C)=O)[C@@H]3C[C@]1(OC3(C)C)[C@H](C)C[C@H](OC(C)=O)[C@@H]2OC(C)=O | – | – |
| 60.3% | – | COc1ccc(CCN(C)CCCC(C#N)(c2ccc(OC)c(OC)c2)C(C)C)cc1OC (configuration not stated) | – | 80.8% |
